Assay results as given in patent publication US6251605A, “Yeast cells having mutations in Cav1 and uses therefor” (priority 1999, dated 2001).

Target: T1, Ste2 receptor (Saccharomyces cerevisiae, UniProt D6VTK4)
T1 construct: The wild type strain and a cav1 mutant strain, transformed with the plasmid; endogenous in cells; host or cells: S. cerevisiae wild type and cav1 mutant strains carrying the FUS1-lacZ reporter plasmid
Test: FUS1-lacZ β-galactosidase reporter assay, Ste2-mediated signaling
Type: cell-based, S. cerevisiae
Conditions: 30 minutes incubation
Protocol: In order to determine whether the CAV1 gene is involved in Ste2-mediated signaling, the effects of a cav1 mutation on the levels of FUS1-lacZ induction in response to o-factor were studied as described below. Transformants were grown to the mid-exponential phase in the medium SC without uracil. 100 μt aliquots of cultures were incubated in 96-well plates in the presence of increasing concentrations of α-factor at 30° C. for 30 minutes prior to assaying β-galactosidase activity. 20 μl of 6X Z-buffer (0.6 M sodium phosphate, pH 7.0, 60 mM KCl, 6 mM MgCl2, 1.6% (v/v) β-mercaptoethanol) containing 10 mM chlorophenolred-β-D-galactoside (CPRG) and 2.5% Triton X-100 was added to each aliquot followed by incubation at room temperature for 30-60 min. The enzymatic reactions were stopped by adding […] of 1 M sodium carbonate and A575 values were determined using a Biomek Plate Reader (Beckman).
The wild type strain and a cav1 mutant strain, transformed with the plasmid Cpl 584 encoding the FUS 1-lacZ reporter gene, were incubated in the presence of α-factor for 30 minutes prior to the β-galactosidase assay. […] Furthermore, the rate of ligand-independent endocytosis of Ste2 receptor, and of Ste3 receptor, respectively, decreased by approximately two-fold in the cav1 mutant. Therefore, an increase in Ste2β mediated signaling may be attributed to the reduced internalization of yeast GPCRs.

T1 sequence (D6VTK4 whole entry): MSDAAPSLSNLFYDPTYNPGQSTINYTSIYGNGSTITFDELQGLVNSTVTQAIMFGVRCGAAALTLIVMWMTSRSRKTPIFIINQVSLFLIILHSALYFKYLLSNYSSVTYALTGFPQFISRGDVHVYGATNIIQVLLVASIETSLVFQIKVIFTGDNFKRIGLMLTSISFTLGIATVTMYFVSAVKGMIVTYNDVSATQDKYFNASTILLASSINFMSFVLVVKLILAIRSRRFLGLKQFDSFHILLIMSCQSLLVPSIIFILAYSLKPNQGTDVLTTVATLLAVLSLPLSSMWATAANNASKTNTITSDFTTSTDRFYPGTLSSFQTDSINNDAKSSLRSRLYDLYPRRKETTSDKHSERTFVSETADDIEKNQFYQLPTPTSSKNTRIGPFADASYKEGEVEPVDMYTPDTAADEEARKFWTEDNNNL

Substance: α-factor
- higher levels of ligand-induced β-galactosidase activity in mutant strain compared with wild type strain (cav1 mutant versus wild type): 50-100%
- estimated EC50 values for α-factor (wild type strain versus cav1 mutant strain): virtually identical
